From patent publication US9486506B2 (Novo Nordisk A/S, priority 2011, dated 2016)
Numbered stars: 1 amine (or outer) side, 2 acyl side, 3 side chain; on linkers, the order of the positions; unused ones are H or OH. Side chains are listed from the residue outwards. Peptide text beside a SMILES is read from it. * marks the point of attachment. C18 diacid = O=C(O)CCCCCCCCCCCCCCCCC(=O)*; γGlu = O=C(O)[C@H](CCC(=O)[*:2])N[*:1]; AEEA = NCCOCCOCC(=O)O

Key:
glucagon receptor = biological target: T1, glucagon receptor (Homo sapiens, UniProt P47871); experiment: Assay (I) Glucagon activity (cAMP biosensor, FLIPR); type: cell-based
T1 construct: expressed in transfected cells

[1] = Assay (X) Chemical stability assessment by RP-UPLC; type: physicochemical; conditions: pH 8.15, 14 days at 37° C. vs 5° C., 333 μM
Protocol: Chemical Stability Assessment
Lyophilized samples were dissolved in buffer (see below for detailed compositions) to a final concentration of 333 μM and a pH of 8.15, and were incubated for 14 days at 5° C. and 37° C. followed by RP-UPLC analysis. Purity was defined as the area percentage of the main peak in relation to the total area of all integrated peaks in each chromatogram. Purity loss after 14 days at 37° C. was determined as the difference in purity between the samples incubated at 5° C. and 37° C., divided by the purity of the sample after incubation for 14 days at 5° C.
RP-UPLC analysis was performed using a Waters BEH130 2.1 mm×150 mm, 1.7 μm column operated at 50° C. and a flow rate of 0.4 mL/min using a mobile phase system consisting of typically A: 50 mM Phosphate, 10 w/w % Acetonitrile pH 3 and B: 80 v/v Acetonitrile. UV-detection was performed at 215 nm. The typical gradient profile used for most of the samples is shown below.
For some individual analogues eluting at substantially different retention times compared with the majority of analogues, some adjustments to the gradient profile were made to better enable purity assessment comparison across samples. Also the composition of the channel B mobile phase component was in some of the analyses exchanged for a 90 v/v % Acetonitrile solvent solution in an attempt to better handle carry-over of material from one injection to the next in the sequence. This was however compensated for by recalculating the gradient profile appropriately.
Buffer: • 50 mM Dinatriumphosphatdihydrat • 184 mM Propylenglycol • 58 mM Phenol • pH adjusted to 8.15 with H3PO4. In cases where pH was adjusted to 8.15 after re-suspension of analogues, 0.2 M NaOH was used. Assay (XI) Pharmacokinetic Study in Minipigs

T1 sequence (P47871 26-477): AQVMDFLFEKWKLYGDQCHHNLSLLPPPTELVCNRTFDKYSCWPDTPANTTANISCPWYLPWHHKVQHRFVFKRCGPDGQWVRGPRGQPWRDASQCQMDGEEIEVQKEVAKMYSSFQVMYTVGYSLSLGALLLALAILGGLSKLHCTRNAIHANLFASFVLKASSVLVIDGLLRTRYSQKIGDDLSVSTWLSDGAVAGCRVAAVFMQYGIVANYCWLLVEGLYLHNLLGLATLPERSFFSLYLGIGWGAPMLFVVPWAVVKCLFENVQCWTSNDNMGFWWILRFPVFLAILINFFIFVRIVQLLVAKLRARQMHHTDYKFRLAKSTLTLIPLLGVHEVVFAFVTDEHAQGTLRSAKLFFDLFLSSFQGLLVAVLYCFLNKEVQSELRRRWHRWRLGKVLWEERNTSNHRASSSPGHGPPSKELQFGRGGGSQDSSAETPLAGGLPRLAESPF

Structure (SMILES)	EC50 (glucagon receptor)	Chemical stability [Purity loss/14 days 37 C.] [1]
CC(C)C[C@H](NC(=O)[C@H](Cc1ccc(O)cc1)NC(=O)[C@H](CCCNC(=N)N)NC(=O)[C@H](CO)NC(=O)[C@H](Cc1ccc(O)cc1)NC(=O)[C@H](CC(=O)O)NC(=O)[C@H](CO)NC(=O)[C@@H](NC(=O)[C@H](Cc1ccccc1)NC(=O)[C@@H](NC(=O)CNC(=O)[C@H](CCC(N)=O)NC(=O)[C@H](CO)NC(=O)[C@@H](N)Cc1c[nH]cn1)[C@@H](C)O)[C@@H](C)O)C(=O)N[C@@H](CC(=O)O)C(=O)N[C@@H](Cc1ccccc1)C(=O)N[C@@H](CCCNC(=N)N)C(=O)N[C@@H](CCCNC(=N)N)C(=O)N[C@@H](C)C(=O)N[C@@H](CCC(N)=O)C(=O)N[C@@H](CC(=O)O)C(=O)N[C@@H](Cc1ccccc1)C(=O)N[C@H](C(=O)N[C@@H](CCCCNC(=O)CC[C@H](NC(=O)CC[C@H](NC(=O)COCCOCCNC(=O)COCCOCCNC(=O)CC[C@H](NC(=O)CCCCCCCCCCCCCCCCC(=O)O)C(=O)O)C(=O)O)C(=O)O)C(=O)N[C@@H](Cc1c[nH]c2ccccc12)C(=O)N[C@@H](CC(C)C)C(=O)N[C@@H](CC(C)C)C(=O)N[C@@H](CO)C(=O)N[C@H](C(=O)O)[C@@H](C)O)C(C)C [Example 17, N^ε24-[(4S)-4-carboxy-4-[[(4S)-4-carboxy-4-[[2-[2-[2-[[2-[2-[2-[[(4S)-4-carboxy-4-(17-carboxyheptadecanoylamino)butanoyl]amino]ethoxy]ethoxy]acetyl]amino]ethoxy]ethoxy]acetyl]amino]butanoyl]amino]butanoyl]-[Arg^12,Phe^16,Lys^24,Leu^27,Ser^28]-Glucagon] (H-HSQGTFTSDYSRYLDFRRAQDFVK([γGlu-γGlu-AEEA-AEEA-γGlu-C18 diacid])WLLST-OH)	1640 pM	3.1%
CC(C)C[C@H](NC(=O)[C@H](CC(=O)O)NC(=O)[C@H](CC(C)C)NC(=O)[C@H](Cc1ccc(O)cc1)NC(=O)[C@H](CCCNC(=N)N)NC(=O)[C@H](CO)NC(=O)[C@H](Cc1ccc(O)cc1)NC(=O)[C@H](CC(=O)O)NC(=O)[C@H](CO)NC(=O)[C@@H](NC(=O)[C@H](Cc1ccccc1)NC(=O)[C@@H](NC(=O)CNC(=O)[C@H](CCC(N)=O)NC(=O)[C@H](CO)NC(=O)[C@@H](N)Cc1c[nH]cn1)[C@@H](C)O)[C@@H](C)O)C(=O)N[C@@H](CCCNC(=N)N)C(=O)N[C@@H](CCCNC(=N)N)C(=O)N[C@@H](C)C(=O)N[C@@H](CCC(N)=O)C(=O)N[C@@H](CC(=O)O)C(=O)N[C@@H](Cc1ccccc1)C(=O)N[C@H](C(=O)N[C@@H](CCCCNC(=O)CC[C@H](NC(=O)CC[C@H](NC(=O)CC[C@H](NC(=O)CC[C@H](NC(=O)CCCCCCCCCCCCCCCCC(=O)O)C(=O)O)C(=O)O)C(=O)O)C(=O)O)C(=O)N[C@@H](Cc1c[nH]c2ccccc12)C(=O)N[C@@H](CC(C)C)C(=O)N[C@@H](CC(C)C)C(=O)N[C@@H](CO)C(=O)N[C@H](C(=O)O)[C@@H](C)O)C(C)C [Example 86, N^ε24-[(4S)-4-carboxy-4-[[(4S)-4-carboxy-4-[[(4S)-4-carboxy-4-[[(4S)-4-carboxy-4-(17-carboxyheptadecanoylamino)butanoyl]amino]butanoyl]amino]butanoyl]amino]butanoyl]-[Arg12,Leu16,Lys24,Leu27,Ser28]-Glucagon] (H-HSQGTFTSDYSRYLDLRRAQDFVK([γGlu-γGlu-γGlu-γGlu-C18 diacid])WLLST-OH)	343 pM	3.7%
CC(C)C[C@H](NC(=O)[C@H](Cc1ccc(O)cc1)NC(=O)[C@H](CCCCN)NC(=O)[C@H](CO)NC(=O)[C@H](Cc1ccc(O)cc1)NC(=O)[C@H](CC(=O)O)NC(=O)[C@H](CO)NC(=O)[C@@H](NC(=O)[C@H](Cc1ccccc1)NC(=O)[C@@H](NC(=O)CNC(=O)[C@H](CCC(N)=O)NC(=O)[C@H](CO)NC(=O)[C@@H](N)Cc1c[nH]cn1)[C@@H](C)O)[C@@H](C)O)C(=O)N[C@@H](CC(=O)O)C(=O)N[C@@H](C)C(=O)N[C@@H](CCCNC(=N)N)C(=O)N[C@@H](CCCNC(=N)N)C(=O)N[C@@H](C)C(=O)N[C@@H](CCC(N)=O)C(=O)N[C@@H](CC(=O)O)C(=O)N[C@@H](Cc1ccccc1)C(=O)N[C@H](C(=O)N[C@@H](CCCCNC(=O)CC[C@H](NC(=O)CC[C@H](NC(=O)COCCOCCNC(=O)COCCOCCNC(=O)CC[C@H](NC(=O)CCCCCCCCCCCCCCCCC(=O)O)C(=O)O)C(=O)O)C(=O)O)C(=O)N[C@@H](Cc1c[nH]c2ccccc12)C(=O)N[C@@H](CC(C)C)C(=O)N[C@@H](CC(C)C)C(=O)N[C@@H](CCC(N)=O)C(=O)N[C@H](C(=O)O)[C@@H](C)O)C(C)C [Example 56, N^ε24-[(4S)-4-carboxy-4-[[(4S)-4-carboxy-4-[[2-[2-[2-[[2-[2-[2-[[(4S)-4-carboxy-4-(17-carboxyheptadecanoylamino)butanoyl]amino]ethoxy]ethoxy]acetyl]amino]ethoxy]ethoxy]acetyl]amino]butanoyl]amino]butanoyl]-[Ala16,Lys24,Leu27,Gln28]-Glucagon]	192 pM	8.1%
CC(C)C[C@H](NC(=O)[C@H](Cc1ccc(O)cc1)NC(=O)[C@H](CCCCN)NC(=O)[C@H](CO)NC(=O)[C@H](Cc1ccc(O)cc1)NC(=O)[C@H](CC(=O)O)NC(=O)[C@H](CO)NC(=O)[C@@H](NC(=O)[C@H](Cc1ccccc1)NC(=O)[C@@H](NC(=O)CNC(=O)[C@H](CCC(N)=O)NC(=O)[C@H](CO)NC(=O)[C@@H](N)Cc1c[nH]cn1)[C@@H](C)O)[C@@H](C)O)C(=O)N[C@@H](CC(=O)O)C(=O)N[C@@H](C)C(=O)N[C@@H](CCCNC(=N)N)C(=O)N[C@@H](CCCNC(=N)N)C(=O)N[C@@H](C)C(=O)N[C@@H](CCC(N)=O)C(=O)N[C@@H](CC(=O)O)C(=O)N[C@@H](Cc1ccccc1)C(=O)N[C@H](C(=O)N[C@@H](CCCCNC(=O)CC[C@H](NC(=O)CC[C@H](NC(=O)COCCOCCNC(=O)COCCOCCNC(=O)CC[C@H](NC(=O)CCCCCCCCCCCCCCCCC(=O)O)C(=O)O)C(=O)O)C(=O)O)C(=O)N[C@@H](Cc1c[nH]c2ccccc12)C(=O)N[C@@H](CC(C)C)C(=O)N[C@@H](CCC(=O)O)C(=O)N[C@@H](CO)C(=O)N[C@H](C(=O)O)[C@@H](C)O)C(C)C [Example 57, N^ε24-[(4S)-4-carboxy-4-[[(4S)-4-carboxy-4-[[2-[2-[2-[[2-[2-[2-[[(4S)-4-carboxy-4-(17-carboxyheptadecanoylamino)butanoyl]amino]ethoxy]ethoxy]acetyl]amino]ethoxy]ethoxy]acetyl]amino]butanoyl]amino]butanoyl]-[Ala16,Lys24,Glu27,Ser28]-Glucagon]	70 pM	7.9%
